Test results published in US8193333B2, “Cancer therapy using Bcl-Xl-specific siNA” (Centre Regional de Lutte Contre le Cancer-Centre Francois …, priority 2006, dated 2012).

Tests used:
[1] = system: subcutaneous SKOV3 human ovarian carcinoma; assay: Growth of subcutaneous SKOV3 tumours in nude mice; assay type: in vivo; details: 25 μg/kg intraperitoneally once a week, FIG. 16
Experimental: PEI/siRNA complexes were prepared in 5% glucose solution with a ratio of L-PEI nitrogen to siRNA phosphate of 5:1. Various amounts of siRNA (125, 625 or 2500 ng) and L-PEI were diluted separately, and PEI was then added to the siRNA. The solution was quickly homogenized and left for 15 min at room temperature. It was injected intraperitoneally in mice as a 0.5 ml 5% glucose solution.
SKOV3 cells (2×10^7/500 μL) were inoculated subcutaneously into the right flank of nude mice, and establishment of palpable tumours was determined. The tumour volume was calculated as v=L×l^2×p/6 where L and l represent the larger and the smaller tumour diameter measured twice week with digital caliper. When tumours reached an average volume of ˜100 mm^3 (on day 10), three experimental groups (three mice per group) were tested as follow: (a) untreated, (b) siXL1 naked (25 μg/kg), and (c) siXL1-PEI (25 μg/kg). The samples were diluted in 0.5 ml 0.9% NaCl solution (siRNA naked) or in 0.5 ml 5% glucose solution (siRNA-PEI) and injected intraperitoneally. This process was repeated once a week.

Bcl-XL protein = assay: Immunohistochemical analysis of Bcl-XL protein in SKOV3 peritoneal tumour nodes of mice; assay type: in vivo, human; details: naked siXL1 5, 25 or 100 μg/kg, 3 days after injection
Experimental: […] […] The solution was quickly homogenized and left for 15 min at room temperature. It was injected intraperitoneally in mice as a 0.5 ml 5% glucose solution.
[…] Mice were killed 3 days after transfection and each organ (kidney, liver, spleen, pancreas, ovary, peritoneum, diaphragm, lung, heart and skeletal muscle) was washed with saline solution. Parts of each organs were either frozen in liquid nitrogen and stored at −80° C. for RT-PCR and western blot analysis, or formalin-fixed and paraffin-embedded for histological examination and immunohistochemical analysis.
Immunohistochemical staining was performed on paraffin-embedded material. To perform immunostaining, 4 μm-thick sections were dewaxed, rehydrated and treated 30 minutes by high-temperature-heating antigen retrieval technique in citrate buffer 0.1M pH6 to unmask epitopes. Sections were incubated 1 hour at room temperature with polyclonal antibody anti-Bcl-XL/S (S18) obtained from Santa Cruz (TEBU-BIO) and diluted 1:50. After washes, slides were incubated with Rabbit IgG Vectastain ABC Kit (VECTOR, ABCYS) according to the manufacturer instructions.

[2] = system: intraperitoneal SKOV3 human ovarian adenocarcinoma; assay: Survival of nude mice bearing intraperitoneal SKOV3 tumours; assay type: in vivo, Swiss/nude mice
Experimental: 4-week-old female Swiss/nude mice were obtained from CHARLES-RIVER LABORATORIES and maintained in a pathogen-free environment. The mice were fed a standard laboratory diet and tap water ad libitum and kept a 23±1° C. with a 12 h light/dark cycle. Animal experiments in the present study were performed in compliance with the guidelines of the Federation of european laboratory animal science associations.
6-8 weeks old mice were implanted intraperitoneally with 2×10^7 ovarian adenocarcinoma SKOV3 cells. As described previously, this model reflects the i.p growth pattern of advanced ovarian cancer (Louis et al, Cancer Gene Therapy, 2006, 13, 367-374).
Twenty one days after tumour implantation, mice were allocated to one of the eight treatment groups (10 mice per group) summarized in Table II: • Group 1 comprised untreated animals. • Group 2 received intraperitoneal injection of 4 μg/kg cisplatin in 1 ml 0.9% NaCl solution. • Group 3 received intraperitoneal injection of 25 μg/kg control siRNA in 1 ml 0.9% NaCl. • Group 4 received intraperitoneal injection of 25 μg/kg Bcl-XL siRNA in 1 ml 0.9% NaCl. • Group 5 received intraperitoneal injection of 25 μg/kg control siRNA in 1 ml 0.9% NaCl and the following day 4 μg/kg of cisplatin in 1 ml 0.9% NaCl solution. • Group 6 received intraperitoneal injection of 4 μg/kg of cisplatin in 1 ml 0.9% NaCl solution and the following day 25 μg/kg control siRNA in 1 ml 0.9% NaCl. • Group 7 received intraperitoneal injection of 25 μg/kg Bcl-XL siRNA in 1 ml 0.9% NaCl and the following day 4 μg/kg of cisplatin in 1 ml 0.9% NaCl solution. • Group 8 received intraperitoneal injection of 4 μg/kg of cisplatin in 1 ml 0.9% NaCl solution and the following day 25 μg/kg Bcl-XL siRNA in 1 ml 0.9% NaCl.
The same treatment was repeated one month later. Mice were killed and autopsied when considered as moribund. Organs and tumours were formalin-fixed and paraffin-embedded for histological examination. At the end of the experiment, all surviving animals were sacrificed, and histological examination was performed in order to detect residual tumour nodes.

siXL1: double-stranded siRNA blocking Bcl-XL expression; sense 5′-auuggugagucggaucgcatt-3′ (SEQ ID NO: 5), anti-sense 5′-ugcgauccgacucaccaautt-3′ (SEQ ID NO: 6) (sense AUUGGUGAGUCGGAUCGCATT; antisense UGCGAUCCGACUCACCAAUTT; chemistry not given here)
effect on subcutaneous tumor growth [1]: almost no effect
Bcl-XL labelling intensity in tumour nodes (Bcl-XL protein): decreases as the siXL1 dose increases
mice that die in the same interval as the control mice ([2]; group treated with siXL1): 50%
mice with no residual tumors at autopsy after 150 days ([2]; group treated with siXL1): 50%
duration of complete regression of the pre-established tumor after tumor cells implantation ([2]; low dose, mice implanted with human chemoresistant tumor cells): at least 5 months
survival at 130 days ([2]; naked siRNA 25 μg/kg intraperitoneal, 2 injections at 28 days interval, FIG. 15): 60%
effect on mice survival ([2]; siRNA 25 μg/kg, cisplatin 4 μg/kg intraperitoneal, treatment repeated one month later, FIG. 15): increases considerably
